Source: US10323044B2, “Crystal of imidazo-oxazine, pharmaceutical composition containing said crystal, and method for producing said crystal” (TAIHO PHARMACEUTICAL CO., LTD., priority 2015, dated 2019)

Experiment: Solid stability test (storage stability; powder X-ray diffraction and HPLC analog amount)
Format: physicochemical
Settings: 40° C. (hermetically sealed), six months, brown glass bottle
Procedure: Powder X-ray diffraction was performed by lightly pulverizing an appropriate amount of a test substance using an agate mortar as necessary, and measuring the test substance in accordance with the following test conditions.
The storage stability of crystal I of the imidazooxazine compound obtained in accordance with Example 1 was tested after six months of storage at 40° C.
Storage condition: 40° C. (hermetically sealed)
Measurement point: Six months
Container: Brown glass bottle
The powder X-ray diffraction of the sample after storage was measured using the method described above. Alternations in analog amount were analyzed by HPLC according to the following manner.
Method for preparing a sample solution: the sample was dissolved in 50% acetonitrile so that the concentration of the sample became 0.5 mg/mL.
Column: Acentis express C18, 4.6×150 mm, 2.7 μm,
Column temperature: 40° C.
Column flow rate: 1.5 mL/min
Mobile phase: A; 0.1% phosphate, B; acetonitrile

Structure (SMILES): C[C@]1(O)C[C@@](N)(c2ccc(-c3nc4n(c3-c3ccccc3)COc3ccncc3-4)cc2)C1 [crystal I, trans-3-amino-1-methyl-3-(4-(3-phenyl-5H-imidazo[1,2-c]pyrido[3,4-e][1,3]oxazin-2-yl)phenyl)cyclobutanol]
- changes in powder X-ray diffraction pattern after storage: not observed
- amount of analogs (HPLC) after storage (HPLC UV 210 nm): not increased
